Where two headings read alike, the source gives them in different places.
Assays:
A-172 brain tumor = assay: MTT survival assay; assay type: cell-based, human; conditions: A172, 72 h
Method: (§2) The MTT assay is a commonly used method in evaluation of cell survival, based on the ability of viable cells to convert MTT, a soluble tetrazolium salt [3-(4,5-dimethylthuazole-2-yl)-2,5 diphenyl tetrazolium bromide], into an insoluble formazan precipitate, which is quantitated by spectrophotometry following solubilization in dimethyl sulfoxide (DMSO).
The cells were then solubilized in 125 μl of DMSO and absorbance readings were taken using a 96-well Opsys MRI Microplate Reader (ThermoLabsystems; Chantilly, Va.). The amount of MTT dye reduction was calculated based on the difference between absorbance at 570 nm and at 630 nm. Cell viability in treated cells was expressed as the amount of dye reduction relative to that of untreated control cells. The wells which contained only medium and 10 μl of MTT were used as blanks for the plate reader. Three sets of experiments were performed in 8-12 wells for each treatment.
The cells were then solubilized in 125 μl of DMSO and absorbance readings were taken using a 96-well Opsys MRI Microplate Reader (ThermoLabsystems; Chantilly, Va.). The amount of MTT dye reduction was calculated based on the difference between absorbance at 570 nm and at 630 nm. Cell viability in treated cells was expressed as the amount of dye reduction relative to that of untreated control cells. The wells which contained only medium and 10 μI of MTT were used as blanks for the plate reader. Three sets of experiments were performed in 8-12 wells for each treatment.

[1] = test system: Colon Cancer Cells Caco-2; assay: MTS cell viability assay; assay type: cell-based, human; conditions: combinations with Elemene 100 μg/ml, n = 8
Method: (§3) Cells were maintained at 37° C. in a humidified atmosphere including 5% CO2. […] Drugs were dissolved in 100% DMSO and then diluted in medium for experiments.

[2] = test system: human glioma G422 (xenograph in brain); assay: Tumor xenographed in mice brain, survival; assay type: in vivo
Method: (§1) Mice model with tumor xenographed in mice brain: Glioma cell line G-422 or SHG44 (log phase) were diluted to 2×10^7/ml in cell culture hood (no bacteria environment). Each mouse was injected with 0.05 ml of tumor cell in its brain. […] The survival time of these mice was recorded in the next 30 days. The life extension was calculated using the following formula: Life Extension Rate=[( […])/Average survival days of control group[×100 Results: […]

[3] = test system: human glioma SHG44 (xenograph in brain); assay: Tumor xenographed in mice brain, survival; assay type: in vivo, nude mice; conditions: for Survival time as % of control (T/C): compared to control
Method: as §1

[4] = test system: human glioma G-422 (xenograph under skin); assay: Xenograph under skin, injection directly into tumor; assay type: in vivo, mice; conditions: for Tumor Weight X ± SD: in g (unit assumed)
Text: The mice were killed after 3 weeks.

[5] = Chronic toxicity study, 28 days i.v.; assay type: in vivo; conditions: Beagle dogs
[6] = Blood brain barrier passage of 3H labeled Elemene; assay type: in vivo, experimental animals; conditions: own animal experiment, tritium labeled, parent, derivatives and/or metabolites not distinguished
Text: But no careful experiments were done to figure out if it is beta-elemene itself, or its derivatives, or its metabolite or a combination of the above, which pass the BBB. Thus how Elemene works to treat brain tumor is unknown.

[7] = test system: Colon Cancer Cells HCT-15
Method: as §3

[8] = test system: human prostate cancer PC-3M
[9] = test system: human breast cancer Bcap-37
BEL-7402 cells = BEL-7402 cells after 6 weeks of induction with Elemene at 48.9 ug/ml; cited from earlier work
[10] = 3H labeled Elemene, intravenous or oral, radioactivity detected in brain; cited from earlier work
A549 lung cancer = assay: MTT survival assay; conditions: 2 × 10^4 cells/ml
Method: as §2
In brief, carcinoma cells treated with test articles alone, in 96-well tissue culture dishes were incubated with MTT (2 μg/ml) for 4 h. The cells were then solubilized in 125 μl of DMSO and absorbance readings were taken using a 96-well Opsys MRI Microplate Reader (ThermoLabsystems; Chantilly, Va.). The amount of MTT dye reduction was calculated based on the difference between absorbance at 570 nm and at 630 nm. Cell viability in treated cells was expressed as the amount of dye reduction relative to that of untreated control cells. The wells that contained only medium and 10 μl of MTT were used as blanks for the plate reader.

[11] = test system: Colon Cancer Cells HCT-15; assay: MTS cell viability assay; conditions: combinations with Elemene 160 μg/ml, n = 8
Method: as §3

[12] = test system: Colon Cancer Cells Colo 205; assay: MTS cell viability assay; conditions: Colo 205, drug alone
Method: as §3

[13] = test system: Non-small-cell lung cancer (NSCLC) cell lines; assay: Mechanism in NSCLC cells
[14] = 25 mg/kg/time iv × 10 bid, listed as β-Elemene
[15] = 12.5 mg/kg/time iv × 10 bid, listed as β-Elemene
[16] = 50 mg/kg/time iv × 10 bid, listed as β-Elemene

In the case of (−)-Beta-elemene, the IC50 (A-172 brain tumor) is reported as 80 µg/mL, the IC50 ([1]; Caco-2, 4 hr/24 hr × 2) is reported as 91.0 ± 7.55 µg/mL and the IC50 ([1]; Caco-2, 4 hr/24 hr × 3) is reported as 81.1 ± 10.3 µg/mL. The IC50 ([1]; Caco-2, 4 hr/24 hr) was 108 ± 2.55 µg/mL, the IC50 ([1]; Caco-2, 4 hr) was 171 ± 16.0 µg/mL and the IC50 ([1]; Caco-2, 8 hr) was 167 ± 32.9 µg/mL. The IC50 ([1]; Caco-2, 12 hr) was 104 ± 10.7 µg/mL, the IC50 ([1]; Caco-2, 24 hr) was 107 ± 6.00 µg/mL and the IC50 ([1]; Caco-2, 48 hr) was 91.0 ± 7.51 µg/mL. For the same substance, the IC50 ([1]; Caco-2, 72 hr) was 89.1 ± 9.08 µg/mL, the “Average Life Span (day) X± SD” value ([2]; 7.5 mg/kg/time iv × 10 qd) was 12.3 ± 3.4 days and the “Average Life Span (day) X± SD” value ([2]; 15 mg/kg/time iv × 10 qd) was 13.1 ± 2.7 days. The “Average Life Span (day) X± SD” value ([2]; 30 mg/kg/time iv × 10 qd) was 14.1 ± 2.3 days, the “Average Life Span (day) X± SD” value ([2]; 60 mg/kg/time iv × 10 qd) was 14.9 ± 2.1 days and the “Average Life Span (day) X± SD” value ([3]; 7.5 mg/kg/time iv × 10 qd) was 20.2 ± 1.7 days. The “Survival time as % of control (T/C)” value ([3]; 7.5 mg/kg/time iv × 10 qd) was 132.84%, the “Survival time as % of control (T/C)” value ([3]; 7.5 mg/kg/time iv × 10 qd, listed as β-Elemene) was 128.72% and the “Average Life Span (day) X± SD” value ([3]; 15 mg/kg/time iv × 10 qd) was 21.8 ± 1.9 days. The “Survival time as % of control (T/C)” value ([3]; 15 mg/kg/time iv × 10 qd) was 140.46%, the “Survival time as % of control (T/C)” value ([3]; 15 mg/kg/time iv × 10 qd, listed as β-Elemene) was 139.31% and the “Average Life Span (day) X± SD” value ([3]; 30 mg/kg/time iv × 10 qd) was 23.3 ± 3.6 days. For the same substance, the “Survival time as % of control (T/C)” value ([3]; 30 mg/kg/time iv × 10 qd) was 150.37%, the “Survival time as % of control (T/C)” value ([3]; 30 mg/kg/time iv × 10 qd, listed as β-Elemene) was 148.69% and the “Average Life Span (day) X± SD” value ([3]; 60 mg/kg/time iv × 10 qd) was 25.2 ± 3.1 days. For the same substance, the “Survival time as % of control (T/C)” value ([3]; 60 mg/kg/time iv × 10 qd) was 159.81%, the “Survival time as % of control (T/C)” value ([3]; 60 mg/kg/time iv × 10 qd, listed as β-Elemene) was 160.36% and the “Inhibition Rate %” value ([4]; 15 mg/kg it × 10 qd) was 32.00%. For the same substance, the “Tumor Weight X ± SD” value ([4]; 15 mg/kg it × 10 qd) was 1.53 ± 0.27, the “Inhibition Rate %” value ([4]; 30 mg/kg it × 10 qd) was 47.11% and the “Tumor Weight X ± SD” value ([4]; 30 mg/kg it × 10 qd) was 1.19 ± 0.55. The “Inhibition Rate %” value ([4]; 60 mg/kg it × 10 qd) was 60.89%, the “Tumor Weight X ± SD” value ([4]; 60 mg/kg it × 10 qd) was 0.88 ± 0.24 and the “side effects, high dose group” value ([5]; 75 mg/kg/d i.v., 28 days) was “nausea, vomiting, appetite loss, weight loss, saliva dripping and other side effects”. For the same substance, the “pathology changes, low and medium dose groups” value ([5]; 15 and 30 mg/kg/d i.v., 28 days) was “No significant pathology changes related to drug”, the non-toxic dose ([5]; i.v., 28 days consecutively) was 15 mg/kg and the “blood brain barrier (BBB) passage” value [6] was “pass the blood-brain-barrier”. The “blood brain barrier (BBB) passage” value ([6]; listed as beta-elemene) was “can pass blood brain barrier”, the IC50 [7] was 194 ± 19.3 µg/mL and the “Inhibition Rate %” value (human lung cancer A549; 12.5 mg/kg/time iv × 10 bid) was 31.28%. The “Tumor Weight (g) X ± SD” value (human lung cancer A549; 12.5 mg/kg/time iv × 10 bid) was 1.34 ± 0.10 g, the “Tumor Weight (g) X ± SD” value (human lung cancer A549; 25 mg/kg/time iv × 10 bid) was 1.17 ± 0.09 g and the “Inhibition Rate %” value (human lung cancer A549; [14]) was 40.0%. For the same substance, the “Inhibition Rate %” value (human lung cancer A549; 50 mg/kg/time iv × 10 bid) was 43.08%, the “Tumor Weight (g) X ± SD” value (human lung cancer A549; 50 mg/kg/time iv × 10 bid) was 1.11 ± 0.08 g and the “Inhibition Rate %” value (human liver cancer QGY; 12.5 mg/kg/time iv × 10 bid) was 30.92%. The “Tumor Weight (g) X ± SD” value (human liver cancer QGY; 12.5 mg/kg/time iv × 10 bid) was 1.43 ± 0.12 g, the “Inhibition Rate %” value (human liver cancer QGY; 25 mg/kg/time iv × 10 bid) was 37.20% and the “Tumor Weight (g) X ± SD” value (human liver cancer QGY; 25 mg/kg/time iv × 10 bid) was 1.30 ± 0.18 g. The “Inhibition Rate %” value (human liver cancer QGY; 50 mg/kg/time iv × 10 bid) was 45.89%, the “Tumor Weight (g) X ± SD” value (human liver cancer QGY; 50 mg/kg/time iv × 10 bid) was 1.12 ± 0.19 g and the “Inhibition Rate %” value ([8]; 12.5 mg/kg/time iv × 10 bid) was 27.95%. For the same substance, the “Tumor Weight (g) X ± SD” value ([8]; 12.5 mg/kg/time iv × 10 bid) was 1.16 ± 0.12 g, the “Inhibition Rate %” value ([8]; 25 mg/kg/time iv × 10 bid) was 34.78% and the “Tumor Weight (g) X ± SD” value ([8]; 25 mg/kg/time iv × 10 bid) was 1.05 ± 0.07 g. For the same substance, the “Inhibition Rate %” value ([8]; 50 mg/kg/time iv × 10 bid) was 46.58%, the “Tumor Weight (g) X ± SD” value ([8]; 50 mg/kg/time iv × 10 bid) was 0.86 ± 0.12 g and the “Inhibition Rate %” value (human colon cancer HCT-8; 12.5 mg/kg/time iv × 10 bid) was 38.32%. For the same substance, the “Tumor Weight (g) X ± SD” value (human colon cancer HCT-8; 12.5 mg/kg/time iv × 10 bid) was 0.928 ± 0.07 g, the “Inhibition Rate %” value (human colon cancer HCT-8; [15]) was 35.10% and the “Inhibition Rate %” value (human colon cancer HCT-8; 25 mg/kg/time iv × 10 bid) was 49.49%. For the same substance, the “Tumor Weight (g) X ± SD” value (human colon cancer HCT-8; 25 mg/kg/time iv × 10 bid) was 0.772 ± 0.05 g, the “Inhibition Rate %” value (human colon cancer HCT-8; [14]) was 46.01% and the “Inhibition Rate %” value (human colon cancer HCT-8; 50 mg/kg/time iv × 10 bid) was 57.15%. The “Tumor Weight (g) X ± SD” value (human colon cancer HCT-8; 50 mg/kg/time iv × 10 bid) was 0.655 ± 0.08 g, the “Inhibition Rate %” value (human colon cancer HCT-8; [16]) was 54.20% and the “Inhibition Rate %” value ([9]; 12.5 mg/kg/time iv × 10 bid) was 36.09%. For the same substance, the “Tumor Weight (g) X ± SD” value ([9]; 12.5 mg/kg/time iv × 10 bid) was 0.870 ± 0.04 g, the “Inhibition Rate %” value [9, 15] was 33.08% and the “Inhibition Rate %” value ([9]; 25 mg/kg/time iv × 10 bid) was 45.31%. For the same substance, the “Tumor Weight (g) X ± SD” value ([9]; 25 mg/kg/time iv × 10 bid) was 0.738 ± 0.07 g, the “Inhibition Rate %” value [9, 14] was 43.23% and the “Inhibition Rate %” value ([9]; 50 mg/kg/time iv × 10 bid) was 51.33%. For the same substance, the “Tumor Weight (g) X ± SD” value ([9]; 50 mg/kg/time iv × 10 bid) was 0.675 ± 0.10 g, the “Inhibition Rate %” value [9, 16] was 48.08% and the “expression of MDR1 mRNA or P-glycoprotein (P-gp)” value (BEL-7402 cells) was “did not express MDR1 mRNA or P-glycoprotein (P-gp)”. For the same substance, the “blood brain barrier (BBB) passage” value [10] was “passes the blood brain barrier”, the IC50 (A549 lung cancer; A549, 24 h) was 62.0 µg/mL and the IC50 (A549 lung cancer; A549, 48 h) was 55.6 µg/mL. It also gave an IC50 (A549 lung cancer; A549, 72 h) of 56.4 µg/mL, an IC50 ([11]; HCT-15, 4 hr/24 hr × 2) of 199 ± 11.5 µg/mL and an IC50 ([11]; HCT-15, 4 hr/24 hr × 3) of 165 ± 23.0 µg/mL. It also gave an IC50 ([11]; HCT-15, 4 hr/24 hr) of 214 ± 15.8 µg/mL, an IC50 ([11]; HCT-15, 4 hr) of 229 ± 26.9 µg/mL and an IC50 ([11]; HCT-15, 8 hr) of 215 ± 34.1 µg/mL. It also gave an IC50 ([11]; HCT-15, 12 hr) of 202 ± 21.8 µg/mL, an IC50 ([11]; HCT-15, 48 hr) of 197 ± 12.7 µg/mL and an IC50 ([11]; HCT-15, 72 hr) of 197 ± 22.3 µg/mL. For the same substance, the IC50 ([12]; Time 4 hr, n = 8) was 144 ± 10.4 µg/mL, the IC50 ([12]; Time 4 hr/24 hr × 2, n = 8) was 82.3 ± 7.11 µg/mL and the IC50 ([12]; Time 4 hr/24 hr × 3, n = 8) was 56.7 ± 12.6 µg/mL. For the same substance, the IC50 ([12]; Time 4 hr/24 hr, n = 8) was 96.3 ± 11.1 µg/mL, the IC50 ([12]; Time 8 hr, n = 8) was 116 ± 4.00 µg/mL and the IC50 ([12]; Time 12 hr, n = 8) was 110 ± 9.51 µg/mL. For the same substance, the IC50 ([12]; Time 24 hr, n = 8) was 83.0 ± 13.7 µg/mL, the IC50 ([12]; Time 48 hr, n = 8) was 75.3 ± 5.04 µg/mL and the IC50 ([12]; Time 72 hr, n = 8) was 77.7 ± 14.2 µg/mL. The apoptosis [13] was “triggered apoptosis” and the cell cycle effect [13] was “arrest NSCLC cells at cell cycle G2-M phase”.

From patent publication US8507562B2, “Synthesis of (1)-beta-elemene, (-)-beta-elemenal, (-)-beta-elemenol, (-)-beta-elemene fluoride and their analogues, intermediates, and composition and uses thereof” (HYWE Pharmaceuticals, Inc., priority 2004, dated 2013)
